{"source": "patent US10111847B2", "about": "“Compounds and methods for modulating vascular injury” (The Regents of the University of California, priority 2012, dated 2018)", "format_in_all_cases": "cell-based, human", "key": {"TNF-α-stimulated VSMC": {"system": "TNF-α-stimulated VSMC", "assay": "U937 monocyte adhesion to TNF-α-stimulated VSMC (Maresin-1)", "conditions": "1-100 nM, 30 min pretreatment; TNFα 10 ng/ml 4 hr", "protocol": "MaR-1. VSMCs and ECs were seeded on a 96 well plate (20000 cells/well for VSMCs and 50000 cells/well for ECs) and after 2 days, were treated with Maresin-1 (1-100 nM) for 30 min followed by TNF-α for 4 hr and then calcein AM-labeled U937 cells were added on top of the VSMCs. After 15-minute incubation at 37 C, unbound cells were washed off with cold PBS. Fluorescence measurements (ex 494 nm, em 517 nm) of bound monocytes were taken with a plate reader. For capturing images, the assay was performed in 8-well chamber slides (Nunc Labtek) and images were taken after cold PBS wash (three times) following U937 incubation.\nFIGS. 15A-15D. Representative images of Calcein-AM labeled U937 monocytes adhered to human sv-VSMCs pretreated with vehicle (A, B) or 7S-Maresin-1 (C) or 7S-Maresin-1 and pertussis toxin (D) for 30 min, followed by TNFα at 10 ng/ml for 4 hr (B, C, D). (E) Quantitative analysis of U937 adhesion assay in human sv-VSMCs and (F) human sv-ECs (1 ng/ml TNFα used for EC cells). […] Bar graph represents net quantitative densitometry analysis. […] Expression of MCP-1 was measured by qRT-PCR, and normalized to unstimulated cells (n=3, results are mean±SEM, P<0.05 for Mar-1 (10 and 100 nM) vs TNF alone, unpaired t-test)."}, "p65 subunit": {"system": "p65 subunit", "assay": "Nuclear translocation of p65 subunit in sv-ECs (immunofluorescence)", "conditions": "100 nm, 30 min; TNFα 1 ng/ml 2 hrs", "protocol": "Immunofluorescence for p65 (RelA): 15000 VSMCs or 30000 ECs were seeded on a 8-well chamber slide. Cells received 30 min of Maresin-1 pretreatment, followed by TNF-α for 2 hr. Cells were fixed in 2% paraformaldehyde, followed by permeabilization with ice-cold acetone (10 min) and 1% Triton X-100 (20 min). Cells were incubated overnight in a humidified chamber with anti-p65 antibody (Santa Cruz Biotechnology Inc.) followed by Alexa-fluor 488 tagged secondary antibody (Life Technologies) and were visualized under a fluorescent microscope.\nECs were grown in chamber slides and treated with vehicle or 100 nm of 7S-Maresin-1 for 30 min, followed by TNFα (1 ng/ml) for 2 hrs. Cells were fixed and subsequently stained with anti-p65 (Santa Cruz Biotechnology) and secondary antibodies (Alexa-488).\nFIGS. 17A-17D. Representative images of Ctrl (A), TNFα (B), 7S-Maresin-1+TNFα. (C). (D) Mean fluorescence of nucleus and cytoplasm were quantified from all groups and the net result of the ratio of nucleus over cytoplasmic mean fluorescence is depicted in the bar graph, as a measure of relative p65 nuclear translocation. (N>=3). P≤0.05, One-way ANOVA with Dunnett's post hoc test. *: P≤0.05 compared to control, unpaired t-test. †: P≤0.05 compared to TNFα, unpaired t-test. Error bars: SEM."}, "IKKα/β subunit": {"system": "IKKα/β subunit", "assay": "TNFα induced phosphorylation of IKKα/β in sv-VSMCs, western blot", "conditions": "100 nm, 30 min; TNFα 10 ng/ml 15 min", "protocol": "Mar-1. VSMCs and ECs were lysed in buffer (20 mM Tris-Hcl, 137 mM NaCl, 10% Glycerol, 1% NP-40) with protease and phosphatase inhibitors (Halt inhibitor capsules, Pierce, Inc) by sonication on ice. The lysates were instantly snap frozen in liquid nitrogen and thawed back later for western blotting. After centrifugation (15,000 g for 20 minutes), the whole cell extract (supernatant) was collected and was heated at 100° C. in Laemlli buffer for 6 minutes. Lysates were run on Mini-Protean TGX gels\n(Biorad) and transferred on PVDF membranes which were probed with appropriate primary and secondary antibodies and visualized for quantitation using q-dot nanocrystals (Life Technologies, Inc).\nCells were pretreated with 100 nm of 7S/7R-Maresin-1 for 30 min, followed by TNFα (10 ng/ml for VSMC and 1 ng/ml for EC) for 15 min. Whole cell lysates were collected and probed for pan and phospho IKK (Cell Signaling Inc.).\nFIG. 18. IKK-phospho and total IKK western blotting image is representative of three independent experiments. Bar graph represents net quantitative densitometry analysis. N=3. P≤0.05, One-way ANOVA with Dunnett's post hoc test. *: P≤0.05 compared to control, unpaired t-test. †: P≤0.05 compared to TNFα, unpaired t-test. Error bars: SEM."}}, "data": [{"smiles": "CC/C=C\\C/C=C\\C[C@H](O)\\C=C/C=C/C=C/[C@@H](O)C/C=C\\CCC(=O)O", "note": "[7S-Maresin-1, 7S,14R-dihydroxydocosa-4Z,8E,10Z,12Z,16Z,19Z-hexaenoic acid]", "values": [{"measurement": "monocyte adhesion (U937) to TNF-α-stimulated VSMC", "setting": "TNF-α-stimulated VSMC", "result": "dose-dependent inhibition"}, {"measurement": "nuclear translocation of p65 subunit in human sv-ECs", "setting": "p65 subunit", "result": "Inhibits"}, {"measurement": "TNFα induced phosphorylation of IKKα/β subunit in human sv-VSMCs", "setting": "IKKα/β subunit", "result": "Reduce"}]}]}
